PMC4363860 (Scientific Reports, 2015)
Where two headings read alike, the source gives them in different places.

Assays:
[1] = test system: E. coli 14182; experiment: Chemo-sensitization (Suppl. Table S1)
[2] = test system: E. coli 14384; experiment: Chemo-sensitization (Suppl. Table S1); details: for MIC: Escherichia coli, 14384, read-out: MIC of rifampin in presence of C10KKc12K, E. coli 14384
[3] = test system: S. Typhimurium 14028; experiment: Chemo-sensitization (Suppl. Table S1); details: for MIC: Salmonella enterica, TYPHIMURIUM
[4] = Pharmacokinetic study, plasma concentrations by LC-MS; type: in vivo; details: mice, oral 20 mg/Kg, N = 2 mice/time point, mean ± s.d.
Protocol: Drugs blood concentrations were determined by LC-MS using calibrated curves essentially as described[5][9]. […] At specified time intervals mice were euthanized (CO2 asphyxiation) and blood samples collected from vena cava (N = 2 mice/time point). For analysis, samples were centrifuged (2 min, 6000 × g), 200 μl plasma were mixed with 0.5 ml extraction buffer (50% acetonitrile (ACN): 50% methanol) incubated (30 min on plate shaker at 200 rpm, RT), centrifuged (2 min, 14000 × g) and 300 μl supernatant diluted twofold in DDW and analyzed by LC-MS (5 μl injected to Waters Xevo G2 Tof/ACQUITY UPLC H-Class system). Flow rate, 0.5 ml/min. Run time, 5 min. Mobile phase, ACN/DDW combination containing 0.1% formic acid using an ACQUITY UPLC BEH column (C18 1.7 μm) and eluted with a 0–90% ACN gradient. Quantification was by MS detection in positive ionization mode using an identical procedure that was performed in mouse whole blood in order to establish standard calibration curves.

[5] = test system: K. pneumoniae 1287; experiment: Chemo-sensitization (Suppl. Table S1)
[6] = test system: K. pneumoniae; experiment: Efficacy, peritonitis-sepsis model in neutropenic mice; type: in vivo, Klebsiella pneumoniae; details: IP K. pneumoniae 3 × 10^7 CFU, rifampin oral 0.45 mg/mouse or OAK SC 0.3 mg/mouse, 2 experiments, 10 mice/group, vehicle 20 ± 10%
Protocol: Animal studies were performed using male ICR mice (weight range, 23 ± 2 g) obtained from Harlan Laboratories (Rehovot, Israel). Procedures, care and handling of animals were reviewed and approved by Technion Animal Care and Use Committee.
Mice were rendered neutropenic by intraperitoneal (IP) injection of cyclophosphamide (150 and 100 mg/Kg on days 0 and 3, respectively). The procedure was confirmed to result in severe neutropenia by day 4, at which time infection was induced. The peritonitis-sepsis model was used whereby infection was obtained after IP injection of a logarithmic-phase culture of K. pneumoniae (3 × 10^7 CFU/mice in 0.3 ml PBS). […] Mice survival was monitored for up to 7 days post-treatment. Survival data were obtained from 2 independent experiments (n = 10 mice/group/experiment). Statistical analysis was performed using a paired t test were α equals 0.05.

[7] = test system: E. coli 16329; experiment: Chemo-sensitization (Suppl. Table S1)
[8] = test system: E. coli; experiment: MIC and reciprocal sensitization (Fig. 2a,b; Suppl. Figs S2, S3); type: cell-based, Escherichia coli
[9] = test system: E. coli 16327; experiment: Chemo-sensitization (Suppl. Table S1)
[10] = test system: Klebsiella; experiment: MIC (Suppl. Figs S2, S3); type: cell-based
[11] = test system: S. stanley 7308; experiment: Chemo-sensitization (Suppl. Table S1); type: cell-based, Salmonella; details: for MIC: Salmonella enterica, 7308, read-out: MIC of rifampin in presence of C10KKc12K, S. stanley 7308
[12] = test system: E. coli 35218; experiment: Chemo-sensitization (Suppl. Table S1); details: for MIC: Escherichia coli, 35218, read-out: MIC of rifampin in presence of C10KKc12K, E. coli 35218

## CO[C@H]1/C=C/O[C@@]2(C)Oc3c(C)c(O)c4c(O)c(c(/C=N/N5CCN(C)CC5)c(O)c4c3C2=O)NC(=O)/C(C)=C\C=C\[C@H](C)[C@H](O)[C@@H](C)[C@@H](O)[C@@H](C)[C@H](OC(C)=O)[C@@H]1C [rifampin]
[1]; E. coli 14182
  SF, sensitization factor, rifampin with C10KKc12K: 516
  SF, sensitization factor, rifampin with C12(ω7)KKc12K: > 800
[1]; Escherichia coli, 14182, read-out: MIC of rifampin in presence of C10KKc12K, E. coli 14182, OAK 0 µg/ml
  MIC: 16 µg/mL
[1]; Escherichia coli, 14182, read-out: MIC of rifampin in presence of C10KKc12K, E. coli 14182, OAK 1.25 µg/ml
  MIC: 4 µg/mL
[1]; Escherichia coli, 14182, read-out: MIC of rifampin in presence of C10KKc12K, E. coli 14182, OAK 2.5 µg/ml
  MIC: 0.125 µg/mL
[1]; Escherichia coli, 14182, read-out: MIC of rifampin in presence of C10KKc12K, E. coli 14182, OAK 5 µg/ml
  MIC: 0.031 µg/mL
[1]; Escherichia coli, 14182, read-out: MIC of rifampin in presence of C12(ω7)KKc12K, E. coli 14182, OAK 0 µg/ml
  MIC: 8 µg/mL
[1]; Escherichia coli, 14182, read-out: MIC of rifampin in presence of C12(ω7)KKc12K, E. coli 14182, OAK 1.25 µg/ml
  MIC: 8 µg/mL
[1]; Escherichia coli, 14182, read-out: MIC of rifampin in presence of C12(ω7)KKc12K, E. coli 14182, OAK 2.5 µg/ml
  MIC: 0.031 µg/mL
[1]; Escherichia coli, 14182, read-out: MIC of rifampin in presence of C12(ω7)KKc12K, E. coli 14182, OAK 5 µg/ml
  MIC: < 0.01 µg/mL
[2]; E. coli 14384
  SF, sensitization factor, rifampin with C10KKc12K: 258
[2]; OAK 0 µg/ml
  MIC: 8 µg/mL
[2]; OAK 1.25 µg/ml
  MIC: 0.5 µg/mL
[2]; OAK 2.5 µg/ml
  MIC: 0.125 µg/mL
[2]; OAK 5 µg/ml
  MIC: 0.031 µg/mL
[3]; S. Typhimurium 14028
  SF, sensitization factor, rifampin with C10KKc12K: 2000
  SF, sensitization factor, rifampin with C12(ω7)KKc12K: 2667
[3]; read-out: MIC of rifampin in presence of C10KKc12K, S. Typhimurium 14028, OAK 0 µg/ml
  MIC: 16 µg/mL
[3]; read-out: MIC of rifampin in presence of C10KKc12K, S. Typhimurium 14028, OAK 1.25 µg/ml
  MIC: 8 µg/mL
[3]; read-out: MIC of rifampin in presence of C10KKc12K, S. Typhimurium 14028, OAK 5 µg/ml
  MIC: 0.008 µg/mL
[3]; read-out: MIC of rifampin in presence of C12(ω7)KKc12K, S. Typhimurium 14028, OAK 0 µg/ml
  MIC: 16 µg/mL
[3]; read-out: MIC of rifampin in presence of C12(ω7)KKc12K, S. Typhimurium 14028, OAK 1.25 µg/ml
  MIC: 8 µg/mL
[3]; read-out: MIC of rifampin in presence of C12(ω7)KKc12K, S. Typhimurium 14028, OAK 2.5 µg/ml
  MIC: 0.016 µg/mL
[3]; read-out: MIC of rifampin in presence of C12(ω7)KKc12K, S. Typhimurium 14028, OAK 5 µg/ml
  MIC: 0.006 µg/mL
[4]
  plasma concentration reached after oral administration: 13260 ± 2250 ng/mL
[5]; K. pneumoniae 1287
  SF, sensitization factor, rifampin with C12(ω7)KKc12K: 5333
[5]; Klebsiella pneumoniae, 1287, read-out: MIC of rifampin in presence of C10KKc12K, K. pneumoniae 1287, OAK 1.25 µg/ml
  MIC: 8 µg/mL
[5]; Klebsiella pneumoniae, 1287, read-out: MIC of rifampin in presence of C10KKc12K, K. pneumoniae 1287, OAK 2.5 µg/ml
  MIC: 0.031 µg/mL
[5]; Klebsiella pneumoniae, 1287, read-out: MIC of rifampin in presence of C12(ω7)KKc12K, K. pneumoniae 1287, OAK 1.25 µg/ml
  MIC: 4 µg/mL
[5]; Klebsiella pneumoniae, 1287, read-out: MIC of rifampin in presence of C12(ω7)KKc12K, K. pneumoniae 1287, OAK 2.5 µg/ml
  MIC: 0.1 µg/mL
[5]; Klebsiella pneumoniae, 1287, read-out: MIC of rifampin in presence of C12(ω7)KKc12K, K. pneumoniae 1287, OAK 5 µg/ml
  MIC: 0.006 µg/mL
[6]
  survivors at day 7, single dose monotherapy: 10%
[7]; E. coli 16329
  SF, sensitization factor, rifampin with C10KKc12K: 2000
  SF, sensitization factor, rifampin with C12(ω7)KKc12K: 2000
[7]; Escherichia coli, 16329, read-out: MIC of rifampin in presence of C10KKc12K, E. coli 16329, OAK 0 µg/ml
  MIC: 16 µg/mL
[7]; Escherichia coli, 16329, read-out: MIC of rifampin in presence of C10KKc12K, E. coli 16329, OAK 1.25 µg/ml
  MIC: 0.5 µg/mL
[7]; Escherichia coli, 16329, read-out: MIC of rifampin in presence of C10KKc12K, E. coli 16329, OAK 5 µg/ml
  MIC: 0.008 µg/mL
[7]; Escherichia coli, 16329, read-out: MIC of rifampin in presence of C12(ω7)KKc12K, E. coli 16329, OAK 0 µg/ml
  MIC: 16 µg/mL
[7]; Escherichia coli, 16329, read-out: MIC of rifampin in presence of C12(ω7)KKc12K, E. coli 16329, OAK 1.25 µg/ml
  MIC: 8 µg/mL
[7]; Escherichia coli, 16329, read-out: MIC of rifampin in presence of C12(ω7)KKc12K, E. coli 16329, OAK 2.5 µg/ml
  MIC: 0.031 µg/mL
[7]; Escherichia coli, 16329, read-out: MIC of rifampin in presence of C12(ω7)KKc12K, E. coli 16329, OAK 5 µg/ml
  MIC: 0.008 µg/mL
[8]
  standalone antibiotic MIC: 16 µg/mL
[9]; E. coli 16327
  SF, sensitization factor, rifampin with C10KKc12K: 2000
  SF, sensitization factor, rifampin with C12(ω7)KKc12K: > 3200
[9]; Escherichia coli, 16327, read-out: MIC of rifampin in presence of C10KKc12K, E. coli 16327, OAK 0 µg/ml
  MIC: 16 µg/mL
[9]; Escherichia coli, 16327, read-out: MIC of rifampin in presence of C10KKc12K, E. coli 16327, OAK 1.25 µg/ml
  MIC: 0.5 µg/mL
[9]; Escherichia coli, 16327, read-out: MIC of rifampin in presence of C10KKc12K, E. coli 16327, OAK 2.5 µg/ml
  MIC: 0.031 µg/mL
[9]; Escherichia coli, 16327, read-out: MIC of rifampin in presence of C10KKc12K, E. coli 16327, OAK 5 µg/ml
  MIC: 0.008 µg/mL
[9]; Escherichia coli, 16327, read-out: MIC of rifampin in presence of C12(ω7)KKc12K, E. coli 16327, OAK 0 µg/ml
  MIC: 16 to 32 µg/mL
[9]; Escherichia coli, 16327, read-out: MIC of rifampin in presence of C12(ω7)KKc12K, E. coli 16327, OAK 1.25 µg/ml
  MIC: 8 µg/mL
[9]; Escherichia coli, 16327, read-out: MIC of rifampin in presence of C12(ω7)KKc12K, E. coli 16327, OAK 2.5 µg/ml
  MIC: < 0.01 µg/mL
[9]; Escherichia coli, 16327, read-out: MIC of rifampin in presence of C12(ω7)KKc12K, E. coli 16327, OAK 5 µg/ml
  MIC: < 0.01 µg/mL
[10]
  standalone antibiotic MIC: 32 µg/mL
[11]; S. stanley 7308
  SF, sensitization factor, rifampin with C10KKc12K: 2000
[11]; OAK 0 µg/ml
  MIC: 16 µg/mL
[11]; OAK 1.25 µg/ml
  MIC: 16 µg/mL
[11]; OAK 2.5 µg/ml
  MIC: 0.125 µg/mL
[11]; OAK 5 µg/ml
  MIC: 0.008 µg/mL
[12]; E. coli 35218
  SF, sensitization factor, rifampin with C10KKc12K: 258
[12]; OAK 0 µg/ml
  MIC: 8 µg/mL
[12]; OAK 1.25 µg/ml
  MIC: 0.5 µg/mL
[12]; OAK 5 µg/ml
  MIC: 0.031 µg/mL
